Drawing on patent US9884818B2, “Sulphamoylpyrrolamide derivatives and the use thereof as medicaments for the treatment of hepatitis B” (Janssen Sciences Ireland UC, priority 2013, dated 2018), this text covers EC50 and CC50 for 19 compounds.

For data set [1], the system named is HBV. In words: Anti-HBV activity, HepG2.2.15 stable transfected cell line, HBV DNA from secreted virions by realtime PCR. As to conditions: Hepatitis B virus, HepG2.2.15, 144 h, HepG2.2.15 cells, 6 days of treatment, HBV DNA from secreted virions; read-out: HepG2 2.15 EC50. The data set is classed as cell-based.
Data set [2] has as its system HBV. In words: Anti-HBV activity, HepG2.117 inducibly HBV producing cell line (Tet-off), intracellular HBV DNA by realtime PCR. The data set is classed as cell-based. The settings on record: Hepatitis B virus, HepG2.117, 72 h, HepG2.117 cells, 3 days of treatment, intracellular HBV DNA; read-out: HepG2 117 EC50.
Data set [3] can be described thus: Cytotoxicity in HepG2 cells, Resazurin viability assay. As to conditions: human, HepG2 cells, HepG2 4 days CC50 (μM), incubated for 4 days, Resazurin assay. A general note: Alamar Blue is a resazurin reagent that responds to reducing activity.

`C[C@@H](NS(=O)(=O)c1cn(C)c(C(=O)Nc2cccc(C#N)c2)c1F)C(F)(F)F` [Compound 180, N-(3-Cyanophenyl)-3-fluoro-1-methyl-4-{[(1R)-2,2,2-trifluoro-1-methylethyl]sulfamoyl}-1H-pyrrole-2-carboxamide]: the EC50 – broadly, the concentration needed to bring the measured effect to its halfway point – in data set [1] is 10 nM; in data set [2] it was 20 nM. Moreover, the CC50 (commonly the concentration that lowers cell viability or growth by half) at 4 days in data set [3] was over 25 µM.

In the case of `C[C@H](CO)NS(=O)(=O)c1cc(C(=O)Nc2ccc(F)c(C(F)(F)F)c2)n(C)c1` [Compound 41, N-[4-fluoro-3-(trifluoromethyl)phenyl]-4-[[(1R)-2-hydroxy-1-methyl-ethyl]sulfamoyl]-1-methyl-pyrrole-2-carboxamide], the EC50 in data set [1] was found to be 520 nM; in data set [2] it was 330 nM. This compound gave a CC50 at 4 days in data set [3] of over 25 µM.

In the case of `Cn1cc(S(=O)(=O)N[C@H]2CCOC2)cc1C(=O)Nc1ccc(F)c(C(F)(F)F)c1` [Compound 42, N-[4-fluoro-3-(trifluoromethyl)phenyl]-1-methyl-4-[[(3S)-tetrahydrofuran-3-yl]sulfamoyl]pyrrole-2-carboxamide], the EC50 in data set [1] stood at 540 nM; in data set [2], 720 nM. The compound further registered a CC50 at 4 days in data set [3] of over 25 µM.

With `CC[C@@H](C)NS(=O)(=O)c1cn(C)c(C(=O)Nc2ccc(F)c(C#N)c2)c1F` [Compound 186, N-(3-Cyano-4-fluorophenyl)-3-fluoro-1-methyl-4-{[(1R)-1-methyl-propyl]sulfamoyl}-1H-pyrrole-2-carboxamide], the EC50 in data set [1] amounted to 8 nM; in data set [2] it was 5 nM. In addition, the CC50 at 4 days in data set [3] is over 25 µM.

Take `C[C@@H](NS(=O)(=O)c1cc(C(=O)Nc2cccc(F)c2F)n(C)c1)C(F)(F)F` [Compound 203, N-(2,3-Difluorophenyl)-1-methyl-4-{[(1R)-2,2,2-trifluoro-1-methyl-ethyl]sulfamoyl}-1H-pyrrole-2-carboxamide]: the values for the EC50 in data set [1] and in data set [2] were 380 nM and 470 nM, respectively. Also, the CC50 at 4 days in data set [3] is over 25 µM.

Turning to `CC(C)NS(=O)(=O)c1cn(C)c(C(=O)Nc2ccc(F)c(Cl)c2F)c1F` [Compound 234, N-(3-Chloro-2,4-difluorophenyl)-3-fluoro-1-methyl-4-[(1-methyl-ethyl)sulfamoyl]-1H-pyrrole-2-carboxamide], the EC50 was 20 nM in data set [1] and 30 nM in data set [2]. Also, the CC50 at 4 days in data set [3] is over 25 µM.

Regarding `CC(C)NS(=O)(=O)c1cc(C(=O)Nc2ccc(F)c(Cl)c2F)n(C)c1` [Compound 172, N-(3-Chloro-2,4-difluorophenyl)-1-methyl-4-[(1-methylethyl)sulfamoyl]-1H-pyrrole-2-carboxamide], the EC50 in data set [1] turned out to be 100 nM; in data set [2] it was 80 nM. For the same compound, in data set [3], the CC50 at 4 days was over 25 µM.

Consider `C[C@@H](NS(=O)(=O)c1cc(C(=O)Nc2cccc(C#N)c2)n(C)c1)C(F)(F)F` [Compound 158, N-(3-Cyanophenyl)-1-methyl-4-{[(1R)-2,2,2-trifluoro-1-methylethyl]-sulfamoyl}-1H-pyrrole-2-carboxamide], for which the EC50 in data set [1] worked out at 120 nM; in data set [2], 360 nM. Further, the CC50 at 4 days in data set [3] is over 25 µM.

On to `Cc1cc(NC(=O)c2cc(S(=O)(=O)N[C@H]3CCOC3)cn2C)cc(C)c1F` [Compound 31, N-(4-fluoro-3,5-dimethyl-phenyl)-1-methyl-4-[[(3S)-tetrahydrofuran-3-yl]-sulfamoyl]pyrrole-2-carboxamide], for which the EC50 in data set [1] came out at 130 nM; in data set [2], 390 nM. The CC50 at 4 days in data set [3] was over 25 µM.

For the compound `COC(=O)C(C)(C)NS(=O)(=O)c1cc(C(=O)Nc2ccc(F)c(C)c2)n(C)c1` [Compound 49, methyl 2-[[5-[(4-fluoro-3-methyl-phenyl)carbamoyl]-1-methyl-pyrrol-3-yl]sulfonylamino]-2-methyl-propanoate], the results for the EC50 in data set [1] and in data set [2] were 70 nM and 20 nM, respectively. In data set [3], this compound yielded a CC50 at 4 days of over 25 µM.

Turning to `Cc1c(S(=O)(=O)N[C@H](C)C(F)(F)F)cc(C(=O)Nc2cc(F)c(F)c(Cl)c2)n1C` [Compound 137, N-(3-Chloro-4,5-difluorophenyl)-1,5-dimethyl-4-{[(1R)-2,2,2-trifluoro-1-methylethyl]sulfamoyl}-1H-pyrrole-2-carboxamide], the EC50 in data set [1] was found to be 30 nM; in data set [2] it was 40 nM. For the same compound, the CC50 at 4 days in data set [3] came out at 16.5 µM.

With `Cc1cc(NC(=O)c2cc(S(=O)(=O)NC3CC(=O)N(C)C3)cn2C)ccc1F` (stereo not drawn) [Compound 13, N-(4-fluoro-3-methyl-phenyl)-1-methyl-4-[(1-methyl-5-oxo-pyrrolidin-3-yl)sulfamoyl]pyrrole-2-carboxamide], the EC50 is 460 nM in data set [1] and 140 nM in data set [2]. In data set [3], this compound yielded a CC50 at 4 days of over 25 µM.

As to `CCC(CC)(NS(=O)(=O)c1cc(C(=O)Nc2ccc(F)c(C#N)c2)n(C)c1)C(F)(F)F` [Compound 248, N-(3-cyano-4-fluoro-phenyl)-4-{[1-ethyl-1-(trifluoromethyl)propyl]sulfamoyl}-1-methyl-1H-pyrrole-2-carboxamide], the EC50 is 30 nM in data set [1] and 70 nM in data set [2]. The compound further registered a CC50 at 4 days in data set [3] of over 25 µM.

In the case of `Cn1cc(S(=O)(=O)NC2(C)COC2)cc1C(=O)Nc1cc(F)cc(C(F)(F)F)c1` [Compound 45, N-[3-fluoro-5-(trifluoromethyl)phenyl]-1-methyl-4-[(3-methyloxetan-3-yl)sulfamoyl]pyrrole-2-carboxamide], the concentration giving a half-maximal response (EC50) is 320 nM in data set [1] and 340 nM in data set [2]. In addition, the 50% cytotoxic concentration (CC50) at 4 days in data set [3] was over 25 µM.

`Cn1cc(S(=O)(=O)NC(C)(C)C(F)(F)F)cc1C(=O)Nc1ccc(F)c(Cl)c1F` [Compound 254, N-(3-chloro-2,4-difluoro-phenyl)-1-methyl-4-[(2,2,2-trifluoro-1,1-dimethyl-ethyl)sulfamoyl]-1H-pyrrole-2-carboxamide]: the EC50 in data set [1] and in data set [2] was 50 nM each time. This compound returned a CC50 at 4 days in data set [3] of over 25 µM.

As for `Cc1c(S(=O)(=O)NC2(C)COC2)cn(C)c1C(=O)Nc1cc(F)c(F)c(Cl)c1` [Compound 201, N-(3-Chloro-4,5-difluorophenyl)-1,3-dimethyl-4-[(3-methyloxetan-3-yl)sulfamoyl]-1H-pyrrole-2-carboxamide], the EC50 in data set [1] turned out to be 70 nM; in data set [2] it was 20 nM. The CC50 at 4 days in data set [3] was over 25 µM.

Regarding `Cn1cc(S(=O)(=O)NC(C)(C)C(F)(F)F)cc1C(=O)Nc1ccc(F)c(C#N)c1` [Compound 237, N-(3-Cyano-4-fluorophenyl)-1-methyl-4-[(2,2,2-trifluoro-1,1-di-methylethyl)sulfamoyl]-1H-pyrrole-2-carboxamide], the EC50 in data set [1] stood at 80 nM; in data set [2], 100 nM. The compound also displayed a CC50 at 4 days in data set [3] of over 25 µM.

On to `Cn1cc(S(=O)(=O)NC2(C)COC2)c(F)c1C(=O)Nc1cc(F)c(F)c(Cl)c1` [Compound 111, N-(3-Chloro-4,5-difluorophenyl)-3-fluoro-1-methyl-4-[(3-methyloxetan-3-yl)sulfamoyl]-1H-pyrrole-2-carboxamide], for which the EC50 in data set [1] and in data set [2] was 7 nM throughout. Further, the CC50 at 4 days in data set [3] was over 25 µM.

`CC(C)NS(=O)(=O)c1cn(C)c(C(=O)Nc2ccc(F)c(C#N)c2)c1C#N` [Compound 216, 3-Cyano-N-(3-cyano-4-fluorophenyl)-1-methyl-4-[(1-methylethyl)sulfamoyl]-1H-pyrrole-2-carboxamide]: the results for the EC50 in data set [1] and in data set [2] were 180 nM and 460 nM, respectively. Also, the CC50 at 4 days in data set [3] is over 25 µM.
